For assay [1], the system named is Salmonella (S. aarhus, S. muenster E1 & S. worthington). It counts as cell-based. The note with it: for Zone of Inhibition-Diameter, Mean / Zone of Inhibition-Diameter, REP I Plate 1 / Zone of Inhibition-Diameter, REP I Plate 2 / Zone of Inhibition-Diameter, REP II Plate 1 / Zone of Inhibition-Diameter, REP II Plate 2 / Zone of Inhibition-Diameter, REP III Plate 1 / Zone of Inhibition-Diameter, REP III Plate 2: kibble coated. The protocol:
The kibble diffusion test has similar principles as the disk diffusion method. […] […] Efficacy of the AMI was validated by measuring how closely the Salmonella cultures grew with respect to the saturated kibbles.
Commercial canine and feline adult pet food compositions in the form of kibbles were coated with potential AMIs. […] After incubation overnight at 30° C., plates were analyzed for presence of clear zones around the kibbles.

Assay [2] deals with Salmonella (S. aarhus, S. muenster E1 and S. worthington). Type of assay: cell-based. On the set-up: key to Salmonella growth or inhibition (MIC test): −: negative sign means inhibition; +: positive sign denotes growth. How it is done: The minimum inhibitory concentration (MIC) of an antimicrobial ingredient is defined as the maximum dilution of the product that will still inhibit the growth of Salmonella. Serial dilutions (0-3%, except for oregano 0-0.3%) were made of the AMI in bacterial growth media and poured in test tubes. The test organisms (S. aarhus, S. muenster E1 and S. worthington) were then added to the dilutions of the AMI ingredients to a final concentration of 10^6 or 10^3 cfu/g, incubated overnight at 30° C., and scored for growth by turbidity or plate counts.
Minimum Inhibitory Concentration was conducted for 10^3 and 10^6 cfu/g Salmonella. Results reported as negative sign means inhibition, while positive sign denotes growth.

Where two headings read alike, the source gives them in different places.

Consider `CCC(=O)[O-].CCC(=O)[O-].[Ca+2]` [Ca propionate liquid, Ca propionate], for which the “inhibition of Salmonella, clear zone around the kibbles” value in assay [1] (coated kibbles, overnight at 30° C.) is recorded as “inhibited Salmonella”. Further, in assay [1] (1% solution), the “Zone of Inhibition-Diameter, Mean” value is 9 mm; the “Zone of Inhibition-Diameter, REP I Plate 1” value worked out at 5 mm; the “Zone of Inhibition-Diameter, REP I Plate 2” value was 16 mm; the “Zone of Inhibition-Diameter, REP II Plate 1” value was found to be 4 mm. In addition, in assay [1] (1% solution), the “Zone of Inhibition-Diameter, REP II Plate 2” value worked out at 9 mm; the “Zone of Inhibition-Diameter, REP III Plate 1” value was determined as 9 mm; the “Zone of Inhibition-Diameter, REP III Plate 2” value is 9 mm. For the same compound, in assay [1] (2% solution), the “Zone of Inhibition-Diameter, Mean” value came to 17 mm; the “Zone of Inhibition-Diameter, REP I Plate 1” value came to 19 mm; the “Zone of Inhibition-Diameter, REP I Plate 2” value amounted to 14 mm; the “Zone of Inhibition-Diameter, REP II Plate 1” value is listed as 18 mm. In assay [1] (2% solution), the “Zone of Inhibition-Diameter, REP II Plate 2” value was determined as 19 mm; the “Zone of Inhibition-Diameter, REP III Plate 1” value is listed as 16 mm; the “Zone of Inhibition-Diameter, REP III Plate 2” value turned out to be 14 mm. In assay [1] (3% solution), the “Zone of Inhibition-Diameter, Mean” value is recorded as 21 mm; the “Zone of Inhibition-Diameter, REP I Plate 1” value was 20 mm; the “Zone of Inhibition-Diameter, REP I Plate 2” value is given as 15 mm; the “Zone of Inhibition-Diameter, REP II Plate 1” value turned out to be 19 mm. Also, in assay [1] (3% solution), the “Zone of Inhibition-Diameter, REP II Plate 2” value was 25 mm; the “Zone of Inhibition-Diameter, REP III Plate 1” value came out at 24 mm; the “Zone of Inhibition-Diameter, REP III Plate 2” value stood at 25 mm.

Turning to `CCCCCCCCCCCC(=O)N[C@@H](CCCN=C(N)N)C(=O)OCC` [Lauric Arginate], in assay [2] (10^3 and 10^6 cfu/g Salmonella), the “MIC needed to inhibit Salmonella” value worked out at 0.15%. The “Salmonella growth or inhibition (MIC test)” value in assay [2] (10^3 cfu/g Salmonella, antimicrobial level 0.03%) is “−”; in assay [2] (10^3 cfu/g Salmonella, antimicrobial level 0.15%), “−”; in assay [2] (10^3 cfu/g Salmonella, antimicrobial level 0.3%) it was “−”; in assay [2] (10^3 cfu/g Salmonella, antimicrobial level 0.9%) it was “−”; in assay [2] (10^3 cfu/g Salmonella, antimicrobial level 1.5%) it was “−”; in assay [2] (10^3 cfu/g Salmonella, antimicrobial level 2.1%), “−”. For the same compound, the “Salmonella growth or inhibition (MIC test)” value in assay [2] (10^3 cfu/g Salmonella, antimicrobial level 3%) is reported as “−”; in assay [2] (10^3 cfu/g Salmonella, antimicrobial level […]), “−”; in assay [2] (10^6 cfu/g Salmonella, antimicrobial level 0.03%) it was “−”; in assay [2] (10^6 cfu/g Salmonella, antimicrobial level 0.15%), “−”; in assay [2] (10^6 cfu/g Salmonella, antimicrobial level 0.3%) it was “−”; in assay [2] (10^6 cfu/g Salmonella, antimicrobial level 0.9%), “−”. Also, the “Salmonella growth or inhibition (MIC test)” value is recorded as “−” in assay [2] (10^6 cfu/g Salmonella, antimicrobial level 1.5%); “−” in assay [2] (10^6 cfu/g Salmonella, antimicrobial level 2.1%); “−” in assay [2] (10^6 cfu/g Salmonella, antimicrobial level 3%); “−” in assay [2] (10^6 cfu/g Salmonella, antimicrobial level […]).

The values above are taken from patent US20170042193A1, “Pet Food Compositions Having Antimicrobial Activity” (priority 2010, published 2017).
